Assay results published in PubChem BioAssay (NCI).
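96-well plates; 48 h exposure; 5 concentrations. Endpoints by linear interpolation between flanking doses. Not reached: highest tested concentration assigned. GI50 = concentration required for 50% inhibition of growth. The concentration for full growth arrest is given as TGI.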

Experiments:
Assay in all cases: inhibition of tumour cell growth, NCI panel, 48 h
PC-3 prostate = test system: PC-3 prostate
SNB-75 CNS = test system: SNB-75 CNS
HT29 colon = test system: HT29 colon
SF-295 CNS = test system: SF-295 CNS
ACHN renal = test system: ACHN renal
CCRF-CEM leukemia = test system: CCRF-CEM leukemia
SNB-19 CNS = test system: SNB-19 CNS
UACC-62 melanoma = test system: UACC-62 melanoma
SN12C renal = test system: SN12C renal
BT-549 breast = test system: BT-549 breast
UO-31 renal = test system: UO-31 renal
SF-268 CNS = test system: SF-268 CNS
KM12 colon = test system: KM12 colon
MDA-MB-231 breast = test system: MDA-MB-231 breast
U251 CNS = test system: U251 CNS
OVCAR-4 ovarian = test system: OVCAR-4 ovarian
UACC-257 melanoma = test system: UACC-257 melanoma
HCT-15 colon = test system: HCT-15 colon
A549 NSCLC = test system: A549 NSCLC
MALME-3M melanoma = test system: MALME-3M melanoma
COLO 205 colon = test system: COLO 205 colon
MCF7 breast = test system: MCF7 breast
OVCAR-5 ovarian = test system: OVCAR-5 ovarian
EKVX NSCLC = test system: EKVX NSCLC
TK-10 renal = test system: TK-10 renal
NCI-H226 lung = test system: NCI-H226 lung
RXF 393 renal = test system: RXF 393 renal
HOP-92 NSCLC = test system: HOP-92 NSCLC
LOX IMVI melanoma = test system: LOX IMVI melanoma
CAKI-1 renal = test system: CAKI-1 renal
K-562 leukemia = test system: K-562 leukemia
NCI-H522 lung = test system: NCI-H522 lung
NCI-H460 lung = test system: NCI-H460 lung
M14 melanoma = test system: M14 melanoma
HS 578T breast = test system: HS 578T breast
HL-60(TB) leukemia = test system: HL-60(TB) leukemia
OVCAR-3 ovarian = test system: OVCAR-3 ovarian
HCT-116 colon = test system: HCT-116 colon
MOLT-4 leukemia = test system: MOLT-4 leukemia
MDA-MB-435 = test system: MDA-MB-435
RPMI-8226 leukemia = test system: RPMI-8226 leukemia
SK-MEL-5 melanoma = test system: SK-MEL-5 melanoma
OVCAR-8 ovarian = test system: OVCAR-8 ovarian
NCI/ADR-RES ovarian = test system: NCI/ADR-RES ovarian
SK-OV-3 ovarian = test system: SK-OV-3 ovarian
SK-MEL-28 melanoma = test system: SK-MEL-28 melanoma
NCI-H23 lung = test system: NCI-H23 lung
SW-620 colon = test system: SW-620 colon
HCC-2998 colon = test system: HCC-2998 colon
IGROV1 ovarian = test system: IGROV1 ovarian
786-0 renal = test system: 786-0 renal
T-47D breast = test system: T-47D breast
DU-145 prostate = test system: DU-145 prostate
A498 renal = test system: A498 renal
SK-MEL-2 melanoma = test system: SK-MEL-2 melanoma
SF-539 CNS = test system: SF-539 CNS

## CN1CCN(Cc2c[nH]c3c2C(=O)c2c(c(O)c4ccccc4c2O)C3=O)CC1
PC-3 prostate
  GI50: 5.53 µM
  TGI: 21.6 µM
SNB-75 CNS
  GI50: 26.6 µM
  TGI: 55.7 µM
HT29 colon
  GI50: 26.3 µM
  TGI: > 100 µM
SF-295 CNS
  GI50: 15 µM
  TGI: 35.4 µM
ACHN renal
  GI50: 11.3 µM
  TGI: 23.5 µM
CCRF-CEM leukemia
  GI50: 3.51 µM
  TGI: 18.5 µM
SNB-19 CNS
  GI50: 22.4 µM
  TGI: 52 µM
UACC-62 melanoma
  GI50: 16.5 µM
  TGI: 31.6 µM
SN12C renal
  GI50: 10.3 µM
  TGI: 21.9 µM
BT-549 breast
  GI50: 18.6 µM
  TGI: 34.5 µM
UO-31 renal
  GI50: 11.2 µM
  TGI: 32.4 µM
SF-268 CNS
  GI50: 11.1 µM
  TGI: 23.2 µM
KM12 colon
  GI50: 3.46 µM
  TGI: 15.2 µM
MDA-MB-231 breast
  GI50: 7.19 µM
  TGI: 19.9 µM
U251 CNS
  GI50: 11.1 µM
  TGI: 27.9 µM
OVCAR-4 ovarian
  GI50: 21.3 µM
  TGI: 42.6 µM
UACC-257 melanoma
  GI50: 15.9 µM
  TGI: 33.1 µM
HCT-15 colon
  GI50: 3.46 µM
  TGI: 15.6 µM
A549 NSCLC
  GI50: 10.7 µM
  TGI: 25.4 µM
MALME-3M melanoma
  GI50: 12.7 µM
  TGI: 29.3 µM
COLO 205 colon
  GI50: 31.7 µM
  TGI: 70.7 µM
MCF7 breast
  GI50: 5.15 µM
  TGI: 17.7 µM
OVCAR-5 ovarian
  GI50: 18.1 µM
  TGI: 33.6 µM
EKVX NSCLC
  GI50: 13.1 µM
  TGI: 26.7 µM
TK-10 renal
  GI50: 1.46 µM
  TGI: 14.9 µM
NCI-H226 lung
  GI50: 16.8 µM
  TGI: 36.5 µM
RXF 393 renal
  GI50: 6.22 µM
  TGI: 19 µM
HOP-92 NSCLC
  GI50: 7.09 µM
  TGI: 21.8 µM
LOX IMVI melanoma
  GI50: 1.92 µM
  TGI: 3.8 µM
CAKI-1 renal
  GI50: 3.16 µM
  TGI: 18.8 µM
K-562 leukemia
  GI50: 2.82 µM
  TGI: > 100 µM
NCI-H522 lung
  GI50: 14.1 µM
  TGI: 33.8 µM
NCI-H460 lung
  GI50: 5.42 µM
  TGI: 17.9 µM
M14 melanoma
  GI50: 1.79 µM
  TGI: 5.12 µM
HS 578T breast
  GI50: 17 µM
  TGI: 32.8 µM
HL-60(TB) leukemia
  GI50: 10.3 µM
  TGI: 70.4 µM
OVCAR-3 ovarian
  GI50: 11.2 µM
  TGI: 33.2 µM
HCT-116 colon
  GI50: 1.92 µM
  TGI: 10.5 µM
MOLT-4 leukemia
  GI50: 4.02 µM
  TGI: > 100 µM
MDA-MB-435
  GI50: 3.98 µM
  TGI: 16.4 µM
RPMI-8226 leukemia
  GI50: 3 µM
  TGI: 26.5 µM
SK-MEL-5 melanoma
  GI50: 14 µM
  TGI: 26.9 µM
OVCAR-8 ovarian
  GI50: 6.34 µM
  TGI: 26 µM
NCI/ADR-RES ovarian
  GI50: 11.7 µM
  TGI: 25.5 µM
SK-OV-3 ovarian
  GI50: 28.4 µM
  TGI: 55.2 µM
SK-MEL-28 melanoma
  GI50: 19.6 µM
  TGI: 38.3 µM
NCI-H23 lung
  GI50: 12.9 µM
  TGI: 26.9 µM
SW-620 colon
  GI50: 12.5 µM
  TGI: 25 µM
HCC-2998 colon
  GI50: 11.2 µM
  TGI: 23.3 µM
IGROV1 ovarian
  GI50: 3.74 µM
  TGI: 23.4 µM

## Cc1c(CNc2ccc(C(=O)NC(CCCNC(=O)c3ccccc3C(=O)O)C(=O)O)cc2)cnc2nc(N)nc(N)c12 (stereo not drawn)
PC-3 prostate
  GI50: < 0.0001 µM
  TGI: > 100 µM
786-0 renal
  TGI: > 100 µM
CCRF-CEM leukemia
  GI50: > 100 µM
SNB-19 CNS
  TGI: > 100 µM
SN12C renal
  TGI: > 100 µM
BT-549 breast
  TGI: 6.62 µM
T-47D breast
  GI50: > 100 µM
SF-268 CNS
  GI50: 0.00161 µM
MDA-MB-231 breast
  GI50: > 100 µM
  TGI: > 100 µM
U251 CNS
  GI50: 0.00285 µM
  TGI: > 100 µM
UACC-257 melanoma
  GI50: > 100 µM
  TGI: > 100 µM
HCT-15 colon
  TGI: > 100 µM
A549 NSCLC
  TGI: > 100 µM
COLO 205 colon
  GI50: 1.72 µM
  TGI: 4.74 µM
OVCAR-5 ovarian
  TGI: > 100 µM
EKVX NSCLC
  GI50: 0.0834 µM
  TGI: > 100 µM
TK-10 renal
  GI50: > 100 µM
NCI-H226 lung
  GI50: 0.00248 µM
  TGI: 2.91 µM
RXF 393 renal
  GI50: 0.279 µM
  TGI: 2.15 µM
HOP-92 NSCLC
  GI50: > 100 µM
NCI-H522 lung
  GI50: 0.00428 µM
DU-145 prostate
  TGI: > 100 µM
M14 melanoma
  GI50: 0.0385 µM
HL-60(TB) leukemia
  TGI: > 100 µM
OVCAR-3 ovarian
  TGI: > 100 µM
RPMI-8226 leukemia
  GI50: 0.0216 µM
  TGI: > 100 µM
NCI/ADR-RES ovarian
  TGI: > 100 µM
A498 renal
  GI50: > 100 µM
  TGI: > 100 µM
SK-OV-3 ovarian
  GI50: > 100 µM
  TGI: > 100 µM
SK-MEL-2 melanoma
  GI50: > 100 µM
SW-620 colon
  TGI: > 100 µM
HCC-2998 colon
  GI50: 0.167 µM

## O=c1c2cc(C(F)(F)F)ccc2sc2c(NCCCNCCO)nc3ccccc3c12
PC-3 prostate
  GI50: 1.69 µM
  TGI: 3.24 µM
SNB-75 CNS
  GI50: 1.48 µM
  TGI: 2.87 µM
SF-295 CNS
  GI50: 1.81 µM
  TGI: 3.3 µM
ACHN renal
  GI50: 1.51 µM
  TGI: 2.86 µM
SNB-19 CNS
  GI50: 1.65 µM
  TGI: 3.1 µM
UACC-62 melanoma
  GI50: 1.78 µM
  TGI: 3.25 µM
SN12C renal
  GI50: 1.64 µM
  TGI: 3.12 µM
BT-549 breast
  GI50: 5.28 µM
  TGI: 24.9 µM
UO-31 renal
  GI50: 1.37 µM
  TGI: 2.74 µM
KM12 colon
  GI50: 1.62 µM
  TGI: 3.17 µM
MDA-MB-231 breast
  GI50: 1.28 µM
  TGI: 2.63 µM
HCT-15 colon
  GI50: 1.32 µM
  TGI: 2.77 µM
MALME-3M melanoma
  GI50: 1.59 µM
  TGI: 3.09 µM
OVCAR-5 ovarian
  GI50: 1.63 µM
  TGI: 3.04 µM
RXF 393 renal
  GI50: 1.4 µM
  TGI: 2.82 µM
HOP-92 NSCLC
  GI50: 1.08 µM
  TGI: 2.4 µM
LOX IMVI melanoma
  GI50: 1.35 µM
  TGI: 2.7 µM
CAKI-1 renal
  GI50: 1.48 µM
  TGI: 2.81 µM
SF-539 CNS
  GI50: 1.6 µM
  TGI: 3.03 µM
DU-145 prostate
  GI50: 1.74 µM
  TGI: 3.23 µM
NCI-H460 lung
  GI50: 1.22 µM
  TGI: 2.57 µM
OVCAR-3 ovarian
  GI50: 1.68 µM
  TGI: 3.17 µM
MDA-MB-435
  GI50: 1.62 µM
  TGI: 3.04 µM
SK-MEL-5 melanoma
  GI50: 1.62 µM
  TGI: 3.01 µM
A498 renal
  GI50: 1.61 µM
  TGI: 3.06 µM
SK-MEL-28 melanoma
  GI50: 1.87 µM
  TGI: 3.32 µM
SK-MEL-2 melanoma
  GI50: 1.92 µM
  TGI: 3.75 µM
NCI-H23 lung
  GI50: 1.58 µM
  TGI: 3.02 µM
SW-620 colon
  GI50: 1.54 µM
  TGI: 2.98 µM
HCC-2998 colon
  GI50: 1.67 µM
  TGI: 3.29 µM
IGROV1 ovarian
  GI50: 1.23 µM
  TGI: 2.62 µM

## Nc1nc(Cl)cc(OCC2(CO)CCC2)n1
SNB-75 CNS
  GI50: 68.4 µM
EKVX NSCLC
  GI50: 60.6 µM
HOP-92 NSCLC
  GI50: 51.3 µM
